Laboratory results from publication PMC13266636 (ACS Medicinal Chemistry Letters, 2026).

Tests used:
Assay in all cases: stopped-flow CO2 hydration assay
Type in all cases: biochemical
Settings in all cases: read-out: Topiramate; mean of […] assays, errors […]
[1] = molecular target: T1, hCA IX (Homo sapiens, UniProt Q16790)
T1 construct: gene CA9; tumor-associated isoform

[2] = molecular target: T2, hCA XIII (Homo sapiens, UniProt Q8N1Q1)
T2 construct: gene CA13; cytosolic isoform

[3] = molecular target: T3, hCA VI (Homo sapiens, UniProt P23280)
T3 construct: gene CA6
T3 sequence (P23280 18-308): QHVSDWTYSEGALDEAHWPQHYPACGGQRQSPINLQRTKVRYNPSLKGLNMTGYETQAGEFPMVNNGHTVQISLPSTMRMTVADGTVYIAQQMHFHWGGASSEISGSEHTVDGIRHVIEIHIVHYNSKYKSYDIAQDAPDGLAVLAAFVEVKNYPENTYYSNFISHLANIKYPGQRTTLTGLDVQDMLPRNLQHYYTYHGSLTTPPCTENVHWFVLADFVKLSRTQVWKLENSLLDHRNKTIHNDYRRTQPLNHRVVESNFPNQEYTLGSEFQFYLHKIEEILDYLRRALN

[4] = molecular target: T4, hCA XIV (Homo sapiens, UniProt Q9ULX7)
T4 construct: gene CA14
T4 sequence (Q9ULX7 16-290 limits assumed): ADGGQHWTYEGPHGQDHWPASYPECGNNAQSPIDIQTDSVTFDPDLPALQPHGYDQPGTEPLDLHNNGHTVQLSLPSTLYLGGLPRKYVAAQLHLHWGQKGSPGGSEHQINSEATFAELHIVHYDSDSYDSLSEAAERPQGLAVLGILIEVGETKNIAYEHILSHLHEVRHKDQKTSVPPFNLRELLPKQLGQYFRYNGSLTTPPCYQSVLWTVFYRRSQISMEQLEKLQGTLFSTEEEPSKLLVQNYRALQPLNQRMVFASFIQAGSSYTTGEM

T2 sequence (Q8N1Q1 whole entry, canonical isoform): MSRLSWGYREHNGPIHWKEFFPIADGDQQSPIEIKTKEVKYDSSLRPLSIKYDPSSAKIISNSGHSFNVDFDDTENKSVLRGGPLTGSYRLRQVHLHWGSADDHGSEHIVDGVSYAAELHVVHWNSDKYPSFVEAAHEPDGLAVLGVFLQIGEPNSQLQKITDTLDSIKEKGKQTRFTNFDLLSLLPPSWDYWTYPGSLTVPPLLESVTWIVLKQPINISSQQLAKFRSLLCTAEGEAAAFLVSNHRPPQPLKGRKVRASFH

## CC1(C)O[C@@H]2[C@@H](CO[C@@]3(COS(N)(=O)=O)OC(C)(C)O[C@@H]23)O1 [Topiramate]
[1]
  Ki: […]
[2]
  Ki: 47 nM
[3]
  Ki: 45 nM
[4]
  Ki: 1460 nM
